# Laboratory results reported in US11090247B2, “Compositions for protecting the skin from heavy metals and formaldehyde” (FNG RESEARCH CO., LTD., priority 2016, dated 2021).
# What was measured:
# [1] = Removal test of heavy metals of active ingredients (pig skin, ICP-MS): Cd; details: contaminated pig skin
# Procedure: (§1) (1) Preparation of Heavy Metal Contamination Sources and Pig Skin Samples
# (§2) A pig was slaughtered, flayed and the bristle was shaved. The pig skin was cut to prepare 5*5 cm size of skin samples respectively.
# (§3) The said skin samples were cleanly wiped with wet gauze, and then, added to 50 ml of methanol and extracted by shaking with ultrasonic for 60 min. 50 ml of methanol was further added and mixed. The pig skin samples were removed from the extracted solutions to prepare the test solutions.
# (§4) The test solutions were analyzed for heavy metal components using an inductively coupled plasma mass spectrometer (ICP-MS, Xseries™ 2, Thermo Fisher Scientific, UK).
# [2] = Removal test of heavy metals of active ingredients (pig skin, ICP-MS): Pb; details: contaminated pig skin
# Procedure: as §1, §2, §3, §4
# [3] = Removal test of heavy metals of active ingredients (pig skin, ICP-MS): Cu; details: contaminated pig skin
# Procedure: as §1, §2, §3, §4
# [4] = Formaldehyde removing ability test (GC); details: 2.0% formaldehyde solution; for Area (mAU*min) 30 min: formaldehyde GC area after 30 min; for Area (mAU*min) 30 min / Area (mAU*min) 180 min: 3 molar equivalents, room temperature; for Area (mAU*min) 180 min: formaldehyde GC area after 180 min; for Area (mAU*min) Initial: formaldehyde GC area, initial state, 3 molar equivalents of compound
# human skin = assay: Skin irritation test of active ingredient (patch method, CTFA guidelines); type: in vivo; parameters: key to Degree of irritation: 0–0.1 none, 0.11–0.3 weak, 0.31–0.5 moderate, ≥0.51 strong irritation; details: 20 people, patch 24 hours; for Test result(number of subject) (+): (+): Apparent reddening than periphery; for Test result(number of subject) (++): (++): More reddened and swollen than periphery; for Test result(number of subject) (±): (±): slightly reddish than the periphery; for Test result(number of subject) (−): (−): No erythema or particularly no symptoms
# Procedure: A total of 20 people (10 men and 10 women in their 20 s and 30 s) were tested for skin irritation using the patch method according to the guidelines of CTFA (The Cosmetic, Toiletry & Fragrance Association, Inc. Washington, D.C.).
# A filter paper disk was placed in an 8 mm diameter, 10 panels of pin chamber.
# After 24 hours, the pin chamber was removed, and skin conditions were visually observed.
# [Criteria for Skin Irritation]
# (−): No erythema or particularly no symptoms; (±): slightly reddish than the periphery; (+): Apparent reddening than periphery; (++): More reddened and swollen than periphery.
# [Grade for Skin Irritation]
# Degree of irritation 0-0.1: Grade I (unstimulated);
# Degree of irritation 0.11-0.3: Grade II (weakly stimulated);
# Degree of irritation 0.31-0.5: Grade III (moderately stimulated);
# Degree of irritation 0.51 or more: Grade IV (strongly stimulated)
SMILES,Removal of Heavy metals Cd (%) ([1]; 0.1 wt % aqueous solution),Removal of Heavy metals Cd (%) ([1]; 0.5 wt % aqueous solution),Removal of Heavy metals Cd (%) ([1]; 1.0 wt % aqueous solution),Removal of Heavy metals Pb (%) ([2]; 0.1 wt % aqueous solution),Removal of Heavy metals Pb (%) ([2]; 0.5 wt % aqueous solution),Removal of Heavy metals Pb (%) ([2]; 1.0 wt % aqueous solution),Removal of Heavy metals Cu (%) ([3]; 0.1 wt % aqueous solution),Removal of Heavy metals Cu (%) ([3]; 0.5 wt % aqueous solution),Removal of Heavy metals Cu (%) ([3]; 1.0 wt % aqueous solution),Area (mAU*min) 30 min [4],Area (mAU*min) 180 min [4],Area (mAU*min) Initial [4],Degree of irritation (human skin; 0.1 wt %),Grade (human skin; 0.1 wt %),Test result(number of subject) (+) (human skin; 0.1 wt %),Test result(number of subject) (++) (human skin; 0.1 wt %),Test result(number of subject) (±) (human skin; 0.1 wt %),Test result(number of subject) (−) (human skin; 0.1 wt %),Degree of irritation (human skin; 0.5 wt %),Grade (human skin; 0.5 wt %),further results
"O=C(O)CN(CCN(CC(=O)O)CC(=O)O)CC(=O)O [1(EDTA), Ethylenediaminetetraacetic acid, reference compound]",82.3%,87.3%,88.3%,84.3%,88.3%,89.6%,86.5%,88.6%,89.2%,,,,,,,,,,,,
"C1CNCCNCCNCCN1 [Cyclen, 1,4,7,10-tetraazacyclododecane]",88.6%,91.1%,91.4%,91.7%,93.7%,94.3%,93.1%,96.6%,97.8%,0.181 mAU*min,0 mAU*min,0.305 mAU*min,0,I (Degree of irritation 0-0.1: Grade I (unstimulated)),0,0,0,20,0,I (Degree of irritation 0-0.1: Grade I (unstimulated)),Test result(number of subject) (+) (human skin; 0.5 wt %): 0; Test result(number of subject) (++) (human skin; 0.5 wt %): 0; Test result(number of subject) (±) (human skin; 0.5 wt %): 0; Test result(number of subject) (−) (human skin; 0.5 wt %): 20; Degree of irritation (human skin; 1.0 wt %): 0.15; Grade (human skin; 1.0 wt %): II (Degree of irritation 0.11-0.3: Grade II (weakly stimulated)); Test result(number of subject) (+) (human skin; 1.0 wt %): 1; Test result(number of subject) (++) (human skin; 1.0 wt %): 0; Test result(number of subject) (±) (human skin; 1.0 wt %): 1; Test result(number of subject) (−) (human skin; 1.0 wt %): 18
"O=C(O)CN(CCN(CCN(CC(=O)O)CC(=O)O)CC(=O)O)CCN(CC(=O)O)CC(=O)O [Embodiment 1, 3,6,9,12-tetrakis(carboxymethyl)-3,6,9,12-tetraazatetradecanedioic acid]",91.0%,93.0%,94.1%,91.1%,92.0%,92.1%,95.2%,97.3%,97.5%,0.170 mAU*min,0 mAU*min,0.305 mAU*min,0,I (Degree of irritation 0-0.1: Grade I (unstimulated)),0,0,0,20,0.05,I (Degree of irritation 0-0.1: Grade I (unstimulated)),Test result(number of subject) (+) (human skin; 0.5 wt %): 0; Test result(number of subject) (++) (human skin; 0.5 wt %): 0; Test result(number of subject) (±) (human skin; 0.5 wt %): 1; Test result(number of subject) (−) (human skin; 0.5 wt %): 19; Degree of irritation (human skin; 1.0 wt %): 0.20; Grade (human skin; 1.0 wt %): II (Degree of irritation 0.11-0.3: Grade II (weakly stimulated)); Test result(number of subject) (+) (human skin; 1.0 wt %): 0; Test result(number of subject) (++) (human skin; 1.0 wt %): 0; Test result(number of subject) (±) (human skin; 1.0 wt %): 4; Test result(number of subject) (−) (human skin; 1.0 wt %): 16
"O=C(O)c1ccc(N(CCN(CCN(c2ccc(C(=O)O)cc2)c2ccc(C(=O)O)cc2)c2ccc(C(=O)O)cc2)CCN(c2ccc(C(=O)O)cc2)c2ccc(C(=O)O)cc2)cc1 [Embodiment 2, 4,4′,4″,4′″-(((ethane-1,2-diylbis((4-carboxyphenyl)azanediyl))bis(ethane-2,1-diyl))bis(azanetriyl))tetrabenzoic acid]",87.3%,89.7%,90.5%,86.4%,88.6%,89.0%,93.5%,95.8%,96.9%,0.168 mAU*min,0 mAU*min,0.305 mAU*min,0,I (Degree of irritation 0-0.1: Grade I (unstimulated)),0,0,0,20,0,I (Degree of irritation 0-0.1: Grade I (unstimulated)),Test result(number of subject) (+) (human skin; 0.5 wt %): 0; Test result(number of subject) (++) (human skin; 0.5 wt %): 0; Test result(number of subject) (±) (human skin; 0.5 wt %): 0; Test result(number of subject) (−) (human skin; 0.5 wt %): 20; Degree of irritation (human skin; 1.0 wt %): 0.05; Grade (human skin; 1.0 wt %): I (Degree of irritation 0-0.1: Grade I (unstimulated)); Test result(number of subject) (+) (human skin; 1.0 wt %): 0; Test result(number of subject) (++) (human skin; 1.0 wt %): 0; Test result(number of subject) (±) (human skin; 1.0 wt %): 1; Test result(number of subject) (−) (human skin; 1.0 wt %): 19
"O=C(O)c1ccc(N(CCN(CCN(c2ccc(C(=O)O)o2)c2ccc(C(=O)O)o2)c2ccc(C(=O)O)o2)CCN(c2ccc(C(=O)O)o2)c2ccc(C(=O)O)o2)o1 [Embodiment 4, 5,5′,5″,5′″-(((ethane-1,2-diylbis((5-carboxyfuran-2-yl)azanediyl))bis(ethane-2,1-diyl))bis(azanetriyl))tetrakis(furan-2-carboxylic acid)]",87.7%,90.6%,91.8%,86.2%,89.7%,90.8%,92.5%,96.2%,97.2%,0.173 mAU*min,0 mAU*min,0.305 mAU*min,0,I (Degree of irritation 0-0.1: Grade I (unstimulated)),0,0,0,20,0,I (Degree of irritation 0-0.1: Grade I (unstimulated)),Test result(number of subject) (+) (human skin; 0.5 wt %): 0; Test result(number of subject) (++) (human skin; 0.5 wt %): 0; Test result(number of subject) (±) (human skin; 0.5 wt %): 0; Test result(number of subject) (−) (human skin; 0.5 wt %): 20; Degree of irritation (human skin; 1.0 wt %): 0.05; Grade (human skin; 1.0 wt %): I (Degree of irritation 0-0.1: Grade I (unstimulated)); Test result(number of subject) (+) (human skin; 1.0 wt %): 0; Test result(number of subject) (++) (human skin; 1.0 wt %): 0; Test result(number of subject) (±) (human skin; 1.0 wt %): 1; Test result(number of subject) (−) (human skin; 1.0 wt %): 19
